Source: ChEMBL document CHEMBL1909046, “DrugMatrix in vitro pharmacology data”

What was measured:
[1] = DRUGMATRIX: Sodium/nucleoside co-transporter radioligand binding (ligand: nitrobenzylthioinosine); format: cell membranes, Cavia porcellus, Dunkin-Hartley, Cerebral cortex, Membrane; settings: Not Active = under 50% inhibition at 10 µM
[2] = target: Aldo-keto reductase family 1 member B1 (Rattus norvegicus, UniProt P07943); experiment: biochemical; format: tissue-based, Lens of camera-type eye;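 also: inhibition of aldose reductase enzyme activity, measured with DL-glyceraldehyde as the substrate; in other assays of this panel Not Active means under 50% inhibition at 10 µM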
B2 bradykinin receptor = target: T1, B2 bradykinin receptor (Homo sapiens, UniProt P30411); format: cell membranes, Membrane; settings: chem-1; also: in other assays of this panel Not Active means under 50% inhibition at 10 µM
T1 sequence (P30411 whole entry): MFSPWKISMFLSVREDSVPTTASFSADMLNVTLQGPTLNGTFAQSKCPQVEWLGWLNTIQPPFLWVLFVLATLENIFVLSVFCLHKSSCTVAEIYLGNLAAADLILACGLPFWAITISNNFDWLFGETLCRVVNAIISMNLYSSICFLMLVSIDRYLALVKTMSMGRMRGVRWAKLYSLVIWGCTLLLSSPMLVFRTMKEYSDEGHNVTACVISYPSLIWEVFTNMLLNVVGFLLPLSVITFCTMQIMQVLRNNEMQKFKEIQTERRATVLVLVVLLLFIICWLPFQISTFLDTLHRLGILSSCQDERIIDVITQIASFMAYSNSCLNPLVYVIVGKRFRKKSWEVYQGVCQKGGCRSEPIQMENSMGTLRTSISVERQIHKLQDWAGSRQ

Substance-P receptor = Substance-P receptor (Homo sapiens, UniProt P25103); format: cell membranes, Membrane; settings: cho; also: in other assays of this panel Not Active means under 50% inhibition at 10 µM
[3] = target: T2, Nitric oxide synthase, inducible (Mus musculus, UniProt P29477); parameters: species or system Escherichia coli;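 also: inhibition of iNOS enzyme activity measured with L-arginine as substrate; in other assays of this panel Not Active means under 50% inhibition at 10 µM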
T2 sequence (P29477 whole entry): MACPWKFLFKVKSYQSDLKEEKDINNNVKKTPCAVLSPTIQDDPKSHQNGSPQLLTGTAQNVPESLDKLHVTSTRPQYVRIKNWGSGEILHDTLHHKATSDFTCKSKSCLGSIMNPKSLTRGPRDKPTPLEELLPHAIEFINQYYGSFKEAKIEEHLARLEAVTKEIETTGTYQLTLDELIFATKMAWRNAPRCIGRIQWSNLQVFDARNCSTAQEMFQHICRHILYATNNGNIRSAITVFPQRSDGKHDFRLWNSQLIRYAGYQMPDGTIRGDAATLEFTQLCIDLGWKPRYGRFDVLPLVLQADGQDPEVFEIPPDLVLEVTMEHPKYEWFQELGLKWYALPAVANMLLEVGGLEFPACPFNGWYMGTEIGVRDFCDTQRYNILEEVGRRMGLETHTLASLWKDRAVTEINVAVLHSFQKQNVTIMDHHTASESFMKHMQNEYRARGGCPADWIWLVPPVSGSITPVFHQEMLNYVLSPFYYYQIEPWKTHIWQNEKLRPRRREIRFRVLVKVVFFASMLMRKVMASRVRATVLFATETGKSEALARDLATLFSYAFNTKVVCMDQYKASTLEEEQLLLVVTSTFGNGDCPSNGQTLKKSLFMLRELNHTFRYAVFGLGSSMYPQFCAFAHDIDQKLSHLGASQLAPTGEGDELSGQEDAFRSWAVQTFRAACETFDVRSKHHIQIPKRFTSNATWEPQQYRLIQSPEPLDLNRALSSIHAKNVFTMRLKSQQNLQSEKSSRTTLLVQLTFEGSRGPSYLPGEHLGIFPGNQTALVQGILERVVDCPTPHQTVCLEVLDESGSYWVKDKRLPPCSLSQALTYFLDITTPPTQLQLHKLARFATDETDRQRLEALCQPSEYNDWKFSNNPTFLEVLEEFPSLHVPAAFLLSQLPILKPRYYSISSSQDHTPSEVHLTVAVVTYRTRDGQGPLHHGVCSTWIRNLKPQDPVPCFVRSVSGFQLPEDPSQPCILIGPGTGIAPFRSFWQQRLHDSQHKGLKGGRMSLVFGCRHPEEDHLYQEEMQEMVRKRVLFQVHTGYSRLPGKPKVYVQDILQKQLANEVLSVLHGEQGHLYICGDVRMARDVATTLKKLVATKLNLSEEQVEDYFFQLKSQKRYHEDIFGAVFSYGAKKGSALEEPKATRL

Caspase-1 = target: T3, Caspase-1 (Homo sapiens, UniProt P29466); parameters: species or system Escherichia coli
T3 sequence (P29466 whole entry): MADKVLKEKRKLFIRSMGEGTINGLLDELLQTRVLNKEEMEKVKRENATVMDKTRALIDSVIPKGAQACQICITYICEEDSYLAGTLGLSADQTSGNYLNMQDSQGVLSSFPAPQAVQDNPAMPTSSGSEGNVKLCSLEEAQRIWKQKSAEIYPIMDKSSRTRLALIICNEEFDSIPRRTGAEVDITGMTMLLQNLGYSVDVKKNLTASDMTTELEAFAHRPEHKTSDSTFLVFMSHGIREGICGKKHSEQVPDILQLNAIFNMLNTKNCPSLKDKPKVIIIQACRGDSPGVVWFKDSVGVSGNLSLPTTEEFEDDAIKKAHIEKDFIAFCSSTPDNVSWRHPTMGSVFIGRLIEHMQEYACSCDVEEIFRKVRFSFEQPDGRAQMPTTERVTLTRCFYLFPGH

Cathepsin G = target: T4, Cathepsin G (Homo sapiens, UniProt P08311); format: tissue-based; settings: neutrophil
T4 sequence (P08311 whole entry): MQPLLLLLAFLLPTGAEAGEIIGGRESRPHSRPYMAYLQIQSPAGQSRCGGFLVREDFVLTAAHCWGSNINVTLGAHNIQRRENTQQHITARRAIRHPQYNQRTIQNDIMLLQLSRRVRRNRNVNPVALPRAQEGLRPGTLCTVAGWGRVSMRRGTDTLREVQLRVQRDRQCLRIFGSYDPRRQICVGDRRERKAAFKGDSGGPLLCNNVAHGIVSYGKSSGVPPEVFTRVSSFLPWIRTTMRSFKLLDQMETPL

Cytochrome P450 2A6 = target: T5, Cytochrome P450 2A6 (Homo sapiens, UniProt P11509); settings: bti-tn-5b1-4; also: in other assays of this panel Not Active means under 50% inhibition at 10 µM
T5 sequence (P11509 whole entry): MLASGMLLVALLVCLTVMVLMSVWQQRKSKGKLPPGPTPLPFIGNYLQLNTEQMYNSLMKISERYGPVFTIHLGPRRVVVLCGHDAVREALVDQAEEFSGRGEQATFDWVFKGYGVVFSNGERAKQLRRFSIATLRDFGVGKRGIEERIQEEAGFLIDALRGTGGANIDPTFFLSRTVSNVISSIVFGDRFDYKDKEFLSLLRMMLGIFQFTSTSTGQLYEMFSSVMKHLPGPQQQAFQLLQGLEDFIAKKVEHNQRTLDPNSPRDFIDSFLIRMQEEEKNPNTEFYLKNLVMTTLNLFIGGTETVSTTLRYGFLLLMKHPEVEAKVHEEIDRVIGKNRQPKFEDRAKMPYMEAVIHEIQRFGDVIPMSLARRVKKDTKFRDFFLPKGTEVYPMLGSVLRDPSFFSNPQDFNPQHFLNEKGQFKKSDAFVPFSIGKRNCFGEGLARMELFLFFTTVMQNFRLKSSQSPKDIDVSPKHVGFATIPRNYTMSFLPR

Chain of Substance-P receptor (P25103 whole entry): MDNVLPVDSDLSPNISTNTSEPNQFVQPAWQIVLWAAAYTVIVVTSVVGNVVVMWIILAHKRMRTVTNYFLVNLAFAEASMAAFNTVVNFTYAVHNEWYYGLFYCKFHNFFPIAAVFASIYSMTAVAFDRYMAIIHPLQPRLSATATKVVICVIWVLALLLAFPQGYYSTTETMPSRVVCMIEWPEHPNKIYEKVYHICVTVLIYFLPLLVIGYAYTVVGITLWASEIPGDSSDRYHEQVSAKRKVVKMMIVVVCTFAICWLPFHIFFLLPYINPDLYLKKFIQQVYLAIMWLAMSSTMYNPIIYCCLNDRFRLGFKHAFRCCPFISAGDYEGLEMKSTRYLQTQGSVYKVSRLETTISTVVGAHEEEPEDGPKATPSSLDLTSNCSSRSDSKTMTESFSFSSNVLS

| Structure (SMILES) | IC50 [1] | Ki [1] | IC50 [2] | IC50 (B2 bradykinin receptor) | IC50 (Substance-P receptor) | IC50 [3] | IC50 (Caspase-1) | IC50 (Cathepsin G) | IC50 (Cytochrome P450 2A6) | Ki (Cytochrome P450 2A6) | IC50 ([1]; read-out: IC50) | Ki ([1]; read-out: Ki) |
| --- | --- | --- | --- | --- | --- | --- | --- | --- | --- | --- | --- | --- |
| Cc1cc(C)nc(NS(=O)(=O)c2ccc(N)cc2)n1 [SULFAMETHAZINE] | Not Active | Not Active | Not Active | Not Active | Not Active | Not Active | Not Active | Not Active | Not Active | Not Active |  |  |
| CN1CCC(=C2c3ccccc3C=Cc3ccccc32)CC1 [CYPROHEPTADINE] |  |  | Not Active | Not Active | Not Active | Not Active | Not Active | Not Active | Not Active | Not Active |  |  |
| CNC(=C[N+](=O)[O-])NCCSCc1ccc(CN(C)C)o1 [RANITIDINE] | Not Active | Not Active | Not Active | Not Active | Not Active | Not Active | Not Active | Not Active | Not Active | Not Active |  |  |
| CC(=O)N1CCN(c2ccc(OCC3COC(Cn4ccnc4)(c4ccc(Cl)cc4Cl)O3)cc2)CC1 (configuration not stated) [KETOCONAZOLE] |  |  | Not Active | Not Active | Not Active | Not Active | Not Active | Not Active | Not Active | Not Active | 4.41 µM | 1.51 µM |
| CC(C)CC(N(C)C)C1(c2ccc(Cl)cc2)CCC1 (configuration not stated) [SIBUTRAMINE] | Not Active | Not Active | Not Active | Not Active | Not Active | Not Active | Not Active | Not Active | Not Active | Not Active |  |  |
| Cc1onc(-c2ccccc2)c1-c1ccc(S(N)(=O)=O)cc1 [VALDECOXIB] | Not Active | Not Active | Not Active | Not Active | Not Active | Not Active | Not Active | Not Active | Not Active | Not Active |  |  |
| CC/C(=C(/CC)c1ccc(O)cc1)c1ccc(O)cc1 [DIETHYLSTILBESTROL] |  |  | Not Active | Not Active | Not Active | Not Active | Not Active | Not Active | Not Active | Not Active |  |  |
| COCCOC(=O)C1=C(C)NC(C)=C(C(=O)OC(C)C)C1c1cccc([N+](=O)[O-])c1 (configuration not stated) [NIMODIPINE] |  |  | Not Active | Not Active | Not Active | Not Active | Not Active | Not Active |  |  | 1.27 µM | 0.433 µM |
| C=CCN1CC[C@]23c4c5ccc(O)c4O[C@H]2C(=O)CC[C@@]3(O)[C@H]1C5 [NALOXONE] |  |  | Not Active | Not Active | Not Active | Not Active | Not Active | Not Active |  |  |  |  |
| CC(C)NCC(O)COc1cccc2ccccc12 (configuration not stated) [PROPRANOLOL] |  |  | Not Active | Not Active | Not Active | Not Active | Not Active | Not Active | Not Active | Not Active |  |  |
| CC(C)c1nc(CN(C)C(=O)N[C@H](C(=O)N[C@@H](Cc2ccccc2)C[C@H](O)[C@H](Cc2ccccc2)NC(=O)OCc2cncs2)C(C)C)cs1 [RITONAVIR] | Not Active | Not Active | Not Active | Not Active | Not Active | Not Active | Not Active | Not Active |  |  |  |  |
| Clc1ccc2c(c1)C(N1CCNCC1)=Nc1ccccc1O2 [AMOXAPINE] |  |  | Not Active | Not Active | Not Active | Not Active | Not Active | Not Active | Not Active | Not Active |  |  |
| COc1cc2c(c(OC)c1OC)-c1ccc(OC)c(=O)cc1[C@@H](NC(C)=O)CC2 [COLCHICINE] |  |  | Not Active | Not Active | Not Active | Not Active | Not Active | Not Active | Not Active | Not Active |  |  |
